Assays:
[1] = system: Middle Cerebral Artery Occlusion in adult male Wistar rats; test: Post Stroke Recovery Model II (MCA electrocoagulation, behavioral tests); format: in vivo, rat
Text: Adult male Wistar rats are pre-trained on a battery of behavioral tests including: tray reach, gridwalk, forelimb asymmetry (cylinder bracing), forelimb inhibition (swim test) (see below for detailed description of tests). Following pre-stroke behavioral assessment, the rats received surgery, during which a stroke is induced. The rats are pseudo-randomly divided into 5 equal groups (n=12) ensuring an equal number of right and left strokes within each treatment group. The first group receives sham surgery with vehicle as treatment. Administration of the test compound and vehicle (dose, route, timing) is determined by the sponsor. The core body temperature is maintained at 37° C. (+/−1°).
Following surgery, all animals are behaviorally assessed 1, 7, and 14 d post-stroke. At the conclusion of behavioral assessment, all rats undergo an MRI to determine infarct volume. Group behavioral performance and stroke volume are compared between groups using one way analysis of variance to determine therapeutic benefit of the compound in rate and extent of recovery of function following MCAO stroke.
Each animal is weighed (average weights were 340 g) and then anesthetized with isoflurane (4% isoflurane carried on 21/min medical grade oxygen to induce surgical plane and then 2% with 2 l/min oxygen to maintain a surgical plane). Following induction of anesthesia each rat is individually marked with an ear-punch and administered a subcutaneous dose of buprenorphine (0.025 mg/kg). Rectal temperature is monitored and maintained at 37° C.+/−1° C. for the duration of the surgery and until the rat is awake and mobile (approximately 3 hr).
The rat is then placed into a stereotaxic apparatus positioned such that the lateral aspect of the head was facing up. The skin between the eye […] and ear is shaved and washed with surgical antiseptic scrub. A vertical incision is made midway between the right orbit and external auditory canal. The underlying temporalis muscle is incised, detached from the skull and retracted with care to preserve the facial nerve. Two sutures hold the temporal muscle away from the lateral aspect of the skull. A craniotomy is performed from the posterior zygoma and along the temporal ridge of the cranium extending ventrally to expose the middle cerebral artery (MCA) and olfactory tract. The dura is opened, and the base of the MCA and the anterior portion of the first branch is electrocoagulated ventral to the olfactory tract, resulting in infarction of the right dorsolateral cerebral cortex.
Time at which stroke occurred is noted upon completion of the electrocoagulation of the MCA. Once bleeding is controlled, the temporal muscle is replaced and the skin sutured. The rat is then removed from the stereotaxic apparatus and moved to the recovery room. A second subcutaneous dose of buprenorphine (0.025 mg/kg) is administered along with 2 cc of Ringers solution. Water, wet rat chow mash, and a warming blanket under 1/2 the cage is made available while in the recovery room. Once the rat is awake and seen to be eating and drinking, it is moved back into its cage in the animal colony.
Forepaw use is measured with a procedure that is adapted from the method devised by Whishaw, O'Connor, and Dunnett (1986). Each animal is food-restricted such that feeding time occurs after testing each day. The animals are placed in test cages (10×18×10 cm high) with floors and fronts constructed of 2-mm bars, 9 mm apart edge to edge. […]

[2] = system: human umbilical vein endothelial cells (HUVEC); test: In vitro model of angiogenesis using HUVEC and skin fibroblasts; format: cell-based; conditions: HUVEC cultures
Text: Compounds are screened for the ability to enhance angiogenesis in human umbilical vein endothelial cells (HUVEC). This method, adapted from Nakatsu et al., Microvas. Res. 2003, describes a protocol that recapitulates the major events essential for new vessel growth: budding, cell migration, cell proliferation, lumen formation, branching, and anastomosis.
HUVEC are used between P3 and P4. HUVEC are mixed with dextran coated cytodex 3 micro-carriers (Amersham Pharmacia) at a concentration of 400 HUVEC per bead in 1 ml of EGM-2 (2% FBS) medium (Clonetics). Beads with cells are then shaken gently every 20 minutes for 4 hours at 37° C. and 5% CO2. After incubating, beads with cells are transferred to a T-25 tissue culture flask and left for 12-16 hours in 5 ml of EGM-2 at 37° C. and 5% CO2.
The following day, beads with cells are washed three times with EGM-2 and re-suspended at a concentration of 200 cell-coated beads/ml in 2.5 mg/ml of fibrinogen (Sigma) with 0.15 U/ml of aprotinin (Sigma) at a pH of 7.4.
500 uL of fibrinogen/bead solution is then added to 0.625 U of thrombin (Sigma) in one well of a 24 well tissue culture plate. Fibrinogen/Bead solution is allowed to clot for 5 minutes at room temperature and then at 37° C. and 5% CO2 for 20 minutes. 1 mL of EGM-2 with 0.15 U/mL of aprotinin is then added to each well and equilibrated with the fibrin clot for 30 minutes at 37° C. and 5% CO2.
Next, media is removed from the well and replaced with 1 mL of fresh medium. […]
Angiogenesis is scored by quantification of images captured on an inverted microscope at 10× and 20× magnification for vessel length, number of vessels and branches per bead using NIH Image J software. […] YFP positive HUVEC are then cultured as described above and quantification of vessel formation is determined by calculating the area under the threshold fluorescence using NIH Image J software. In both cases, enhanced angiogenesis is determined by comparing compound treated cultures with a DMSO control culture at the same time point.

[3] = concentrations shown to induce β-catenin

Cc1nc(-c2ccccc2Cl)nc(Nc2n[nH]c3ncc(F)cc23)c1C [Compound I-37, N-(2-(2-chlorophenyl)-5,6-dimethylpyrhnidin-4-yl)-5-fluoro-1H-pyrazolo[3,4-b]pyridin-3-amine]
Forelimb inhibition (swimming test) deficit ([1]; 7 and 14 days after stroke): significantly ameliorated this deficit | Gridwalk deficit ([1]; 7 and 14 days after stroke): significantly ameliorated this deficit | Tray reaching deficit compared with vehicle treatment ([1]; 7 and 14 days after stroke): significantly ameliorated this deficit | Forepaw asymmetry (cylinder test) deficit ([1]; low dose, 14 days after stroke): significantly ameliorated this deficit | Adhesive removal test ([1]; rat, in vivo): did not show significant effect | vessel and network formation ([2]; 10 nM, 7 days): increase vessel and network formation | cell proliferation [2, 3]: increased cell proliferation was observed | vessel formation [2, 3]: vessel formation was inhibited

Reference: US20110224197A1, “PYRIMIDINES AND PYRIDINES USEFUL AS INHIBITORS OF PROTEIN KINASES” (Vertex Pharmaceuticals Incorporated, priority 2008, published 2011)
